From patent US9737504B2, “Dihydroorotic and acid dehydrogenase inhibitor” (NAI INC., priority 2012, dated 2017)

Columns and labels:
human DHOD [1] = target: T1, human DHOD (Homo sapiens, UniProt Q02127); test: Measurement of DHOD inhibitory activity (DCIP reduction, end point assay); type: biochemical; details: for inhibition at 0.2 µM: read-out: DHOD inhibition rate (%) 200 nM, 200 nM compound; for IC50: read-out: IC50 (nM) human DHOD (HsDHOD)
Description: The compounds of the present invention were used and measured for their DHOD inhibitory activity at concentrations of 200 nM and 1000 nM.
Reduction of DCIP was measured at 600 nm over 20 minutes.

human DHOD [2] = target: T1, human DHOD; test: as above; type: biochemical; details: read-out: DHOD inhibition rate (%) 100 nM; 100 nM compound

T1 sequence (Q02127 whole entry): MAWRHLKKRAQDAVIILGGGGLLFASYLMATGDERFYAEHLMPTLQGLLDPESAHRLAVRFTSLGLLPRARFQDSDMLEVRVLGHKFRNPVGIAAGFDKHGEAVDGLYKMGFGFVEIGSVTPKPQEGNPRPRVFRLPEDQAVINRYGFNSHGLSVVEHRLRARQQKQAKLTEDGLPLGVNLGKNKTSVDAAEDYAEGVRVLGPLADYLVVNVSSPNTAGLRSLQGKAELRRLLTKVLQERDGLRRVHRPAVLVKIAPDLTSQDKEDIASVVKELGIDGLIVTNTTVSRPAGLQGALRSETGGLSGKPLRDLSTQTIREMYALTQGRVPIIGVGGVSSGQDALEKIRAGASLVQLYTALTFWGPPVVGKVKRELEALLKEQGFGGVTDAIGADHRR

Compound	melting point [°C]	inhibition at 0.2 µM (human DHOD [1]) [%]	IC50 (human DHOD [1]) [nM]	inhibition at 0.1 µM (human DHOD [2]) [%]
Cc1c(Cl)c(O)c(CCCCCCCCCCCC(=O)OC(C)C)c(O)c1C=O [215-15-COO^IPr, Isopropyl 12-(3-chloro-5-formyl-2,6-dihydroxy-4-methylphenyl)dodecanate]	82 to 83			
Cc1c(Cl)c(O)c(/C=C/CCCCCCOC(=O)C(C)C)c(O)c1C=O [200-12-OCOiPr, (E)-8-(3-Chloro-5-formyl-2,6-dihydroxy-4-methylphenyl)-7-octenyl isobutylate]	73	51	326 ± 41	85
CCCCCC(C)CCc1c(O)c(Cl)c(C)c(C=O)c1O (stereo not drawn) [265-8, 3-Chloro-4,6-dihydroxy-2-methyl-5-(3-methyloctyl)benzaldehyde]	65 to 67			
CC(C)=CCC/C(C)=C/Cc1c(O)c(Cl)c(C)c(C=O)c1O [CC-B, (E)-3-Chloro-4,6-dihydroxy-5-(3,7-dimethyl-2,6-octadienyl)-2-methylbenzaldehyde]		69	1050 ± 214	100
Cc1c(Cl)c(O)c(CCCCCCCCCOC(=O)C(C)(C)C)c(O)c1C=O [215-13-OPiv, 9-(3-Chloro-5-formyl-2,6-dihydroxy-4-methylphenyl)nonyl pivalate]	62			
Cc1c(Cl)c(O)c(CCCCCCCCCCCC(=O)O)c(O)c1C=O [215-13-COOH, 12-(3-Chloro-5-formyl-2,6-dihydroxy-4-methylphenyl)dodecanoic acid]	130 to 131			
COC(C)(C)CCC/C(C)=C/Cc1c(O)c(Cl)c(C)c(C=O)c1O [231-9-OMe, 3-Chloro-4,6-dihydroxy-5-[(E)-7-methoxy-3,7-dimethyl-2-octeny]-2-methyl benzaldehyde]		75	67 ± 7	98
C/C(=C\Cc1c(O)c(Cl)c(C)c(C=O)c1O)CCCCOC(=O)C(C)(C)C [264-11-OPiv, (5E)-7-(3-Chloro-5-formyl-2,6-dihydroxy-4-methylphenyl)-5-methyl-5-heptenyl pivalate]		58	123 ± 18	94
CCC(=O)OCCCCCCC/C=C/c1c(O)c(Cl)c(C)c(C=O)c1O [200-13-OCOEt, (E)-9-(3-Chloro-5-formyl-2,6-dihydroxy-4-methylphenyl)-8-nonenyl propionate]	72 to 73			
C/C(=C\Cc1c(O)c(Cl)c(C)c(C=O)c1O)CC/C=C(\C)COC(=O)C(C)(C)C [234-12-OPiv, (2E,6E)-8-(3-Chloro-5-formyl-2,6-dihydroxy-4-methylphenyl)-2,6-dimethyl-2,6-octadienyl pivalate]		72	98 ± 5	102
Cc1c(Cl)c(O)c(/C=C/CCCCCCOC(=O)C(C)(C)C)c(O)c1C=O [200-12-OPiv, (E)-8-(3-Chloro-5-formyl-2,6-dihydroxy-4-methylphenyl)-7-octenyl pivalate]	57 to 58			
Cc1c(Cl)c(O)c(CCCCCCCCO)c(O)c1C=O [215-9-OH, 5-Chloro-2,4-dihydroxy-3-(8-hydroxyoctyl)-6-methylbenzaldehyde]	129 to 130			
CC(=O)/C(C)=C/CC/C(C)=C/Cc1c(O)c(Cl)c(C)c(C=O)c1O [276-9]	119 to 120	87	24 ± 3	96
COC(=O)c1ccc(O)c(C/C=C(\C)CCC=C(C)C)c1O [compound 161, Methyl (E)-3-(3,7-dimethyl-2,6-octadienyl)-2,4-dihydroxybenzoate]	62			
Cc1c(Cl)c(O)c(/C=C/CCCCCCCOC(=O)C(C)(C)C)c(O)c1C=O [200-13-OPiv, (E)-9-(3-Chloro-5-formyl-2,6-dihydroxy-4-methylphenyl)-8-nonenyl pivalate]	69 to 70			
Cc1c(Cl)c(O)c(CCCCCCCC(=O)O)c(O)c1C=O [215-9-COOH, 8-(3-Chloro-5-formyl-2,6-dihydroxy-4-methylphenyl)octanoic acid]	149 to 150			
Cc1c(Cl)c(O)c(CCCCCCCCOC(=O)C(C)(C)C)c(O)c1C=O [215-12-OPiv, 8-(3-Chloro-5-formyl-2,6-dihydroxy-4-methylphenyl)octyl pivalate]	70 to 71			
C/C(=C\COC(=O)C(C)(C)C)CC/C(C)=C/Cc1c(O)c(Cl)c(C)c(C=O)c1O [287-12-OPiv, (2E,6E)-8-(3-Chloro-5-formyl-2,6-dihydroxy-4-methylphenyl)-3,6-dimethyl-2,6-octadienyl pivalate]		82	67 ± 3	104
Cc1c(Cl)c(O)c(CCCCCCCC2CC(=O)C(C)(C)O2)c(O)c1C=O (stereo not drawn) [compound 250, 5-Chloro-2,4-dihydroxy-6-methyl-3-[7-(3,3-dimethyl-4-oxo-2-oxacyclopentyl)heptyl]benzaldehyde]	70 to 71			
C/C(=C\Cc1c(O)c(Cl)c(C)c(C=O)c1O)CC/C=C(\C)C1OC(C)C(C)O1 (stereo not drawn) [509-11, 3-Chloro-5-((2E,6E)-7-(4,5-dimethyl-1,3-dioxolan-2-yl)-3-methyl-2,6-octadienyl)-4,6-dihydroxy-2-methylbenzaldehyde]	35 to 36			
Cc1c(Cl)c(O)c(CCCCCCC(C)C)c(O)c1C=O [279-8, 3-Chloro-4,6-dihydroxy-2-methyl-5-(7-methyloctyl)benzaldehyde]	93 to 94			
C/C(=C\Cc1c(O)c(Cl)c(C)c(C=O)c1O)CC/C=C(\C)CCC1OC1(C)C (stereo not drawn) [281-12, 3-Chloro-5-(2E,6E)-3,7-dimethyl-9-(3,3-dimethyloxiran-2-yl)-2,6-nonadienyl-4,6-dihydroxy-2-methylbenzaldehyde]	36 to 37	79	50 ± 5	100
COC(=O)c1c(C)cc(O)c(C/C=C(\C)CCC=C(C)C)c1O [compound 146, Methyl (E)-3-(3,7-dimethyl-2,6-octadienyl)-2,4-dihydroxy-6-methylbenzoate]	46 to 47			

Continued, values first:

melting point [°C]	inhibition at 0.2 µM (human DHOD [1]) [%]	IC50 (human DHOD [1]) [nM]	inhibition at 0.1 µM (human DHOD [2]) [%]	Compound
120 to 121				CC(C)=CCC/C(C)=C/Cc1c(O)cc(C)c(C=O)c1O [compound 216, (E)-2,4-Dihydroxy-3-(3,7-dimethyl-2,6-octadienyl)-6-methylbenzaldehyde]
87 to 88				COC(=O)CCCCCCCCCc1c(O)c(Cl)c(C)c(C=O)c1O [215-12-COOMe, Methyl 10-(3-chloro-5-formyl-2,6-dihydroxy-4-methylphenyl)decanate]
85				CC(C)=CCC/C(C)=C/Cc1c(O)ccc(C=O)c1O [compound 217, (E)-2,4-Dihydroxy-3-(3,7-dimethyl-2,6-octadienyl)benzaldehyde]
49				Cc1c(Cl)c(O)c(CCCCCCCCCC(=O)OC(C)C)c(O)c1C=O [215-13-COO^IPr, Isopropyl 10-(3-chloro-2,6-dihydroxy-5-formyl-4-methylphenyl)decanate]
70 to 72				C/C(=C\Cc1c(O)c(Cl)cc(C=O)c1O)CC/C=C(\C)C1CC(=O)C(C)(C)O1 (stereo not drawn) [compound 209, 5-Chloro-2,4-dihydroxy-3-[(2E,6E)-7-(5,5-dimethyl-4-oxotetrahydrofuran-2-yl)-3,7-dimethyl-2,6-heptadienyl]benzaldehyde]
111.2 to 111.4	90	31 ± 3	98	C/C(C=O)=C\CC/C(C)=C/Cc1c(O)c(Cl)c(C)c(C=O)c1O [274-9, 3-Chloro-5-[(2E,6E)-3,7-dimethyl-8-oxo-2,6-octadienyl]-4,6-dihydroxy-2-methylbenzaldehyde]
99 to 99.7	82	44 ± 5	103	C/C(=C\CC/C(C)=C/Cc1c(O)c(Cl)c(C)c(C=O)c1O)CO [236-9-OH, 3-Chloro-4,6-dihydroxy-5-(2E,6E)-8-hydroxy-3,7-dimethyl-2,6-octadienyl-2-methylbenzaldehyde]
71				COC(=O)c1cc(Cl)c(O)c(C/C=C(\C)CCC=C(C)C)c1O
	76	60 ± 21	95	COC(CC(=O)C(C)(C)C)/C(C)=C/CC/C(C)=C/Cc1c(O)c(Cl)c(C)c(C=O)c1O (stereo not drawn) [271-12, 3-Chloro-4,6-dihydroxy-2-methyl-5-(2E,6E)-(8-methoxy-3,7,11,11-tetramethyl-10-oxo-2,6-dodecadienyl)benzaldehyde]
63 to 64				CCC(=O)OCCCCCCCCc1c(O)c(Cl)c(C)c(C=O)c1O [215-12-OCOEt, 8-(3-Chloro-5-formyl-2,6-dihydroxy-4-methylphenyl)octyl propionate]
94 to 95				CC(C)=CCC/C(C)=C/Cc1c(O)c(Cl)cc(C=O)c1O [compound 224, (E)-5-Chloro-2,4-dihydroxy-3-(3,7-dimethyl-2,6-octadienyl)benzaldehyde]
63 to 64				Cc1c(Cl)c(O)c(CCCCCCCOC(=O)C(C)(C)C)c(O)c1C=O [215-11-OPiv, 7-(3-Chloro-5-formyl-2,6-dihydroxy-4-methylphenyl)heptyl pivalate]
35 to 36	86	33 ± 3	97	C/C(=C\Cc1c(O)c(Cl)c(C)c(C=O)c1O)CC/C=C(\C)COC1CCCO1 (stereo not drawn) [236-12-OTHF, 3-Chloro-5-(2E,6E)-3,7-dimethyl-8-(tetrahydrofuran-2-yloxy)-2,6-octadienyl-4,6-dihydroxy-2-methylbenzaldehyde]
	57	146 ± 19	87	C/C(=C\Cc1c(O)c(Cl)c(C)c(C=O)c1O)CC/C=C/COC(=O)C(C)(C)C [07-11-116-4]
	74	71 ± 2	90	CCCCC/C(C)=C/Cc1c(O)c(Cl)c(C)c(C=O)c1O [264-8, (E)-3-Chloro-4,6-dihydroxy-2-methyl-5-(3-methyl-2-octenyl)benzaldehyde]
